# Measured values published in patent US20240116985A1, “STAPLED PEPTIDES AND METHODS THEREOF” (priority 2020, published 2024).
# Biological target: T1, full-length beta-Catenin (Uniprot ID P35222) (Homo sapiens, UniProt P35222)
# T1 construct: 10 nM full-length beta-Catenin (Uniprot ID P35222)
# T1 sequence (P35222 1-781): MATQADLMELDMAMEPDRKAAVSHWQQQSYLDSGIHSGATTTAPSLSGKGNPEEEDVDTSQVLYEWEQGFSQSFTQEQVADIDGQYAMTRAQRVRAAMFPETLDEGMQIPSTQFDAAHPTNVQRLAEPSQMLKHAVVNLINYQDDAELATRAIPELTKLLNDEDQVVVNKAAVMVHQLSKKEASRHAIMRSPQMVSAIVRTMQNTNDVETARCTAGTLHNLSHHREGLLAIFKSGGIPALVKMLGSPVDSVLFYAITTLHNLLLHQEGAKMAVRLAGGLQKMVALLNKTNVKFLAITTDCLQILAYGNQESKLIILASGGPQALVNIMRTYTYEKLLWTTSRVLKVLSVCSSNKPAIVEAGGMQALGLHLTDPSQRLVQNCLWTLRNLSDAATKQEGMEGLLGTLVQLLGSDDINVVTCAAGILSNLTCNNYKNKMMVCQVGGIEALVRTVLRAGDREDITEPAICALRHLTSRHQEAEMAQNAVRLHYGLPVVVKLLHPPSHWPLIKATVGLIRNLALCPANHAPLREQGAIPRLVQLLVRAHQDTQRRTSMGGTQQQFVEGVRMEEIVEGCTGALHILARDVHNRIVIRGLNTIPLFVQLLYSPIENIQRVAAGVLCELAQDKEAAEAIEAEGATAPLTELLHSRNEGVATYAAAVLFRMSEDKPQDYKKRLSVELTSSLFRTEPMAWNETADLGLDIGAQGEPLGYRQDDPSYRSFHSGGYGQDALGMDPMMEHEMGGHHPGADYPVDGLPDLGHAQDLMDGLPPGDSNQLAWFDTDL
# Assay: Fluorescence polarization IC50 (beta-catenin / 5FAM-TCF4 10-53 competition)
# Type: binding
# Details: fluorescence polarization; read-out: beta-Catenin FP IC50
row,SMILES,IC50
1,"CC(=O)N1CCC[C@]12CC=CCCCC1(CCCC=CCCCOC(=O)N3CC[C@@](C(=O)N[C@@H](Cc4ccsc4)C(=O)N[C@@H](Cc4csc5ccccc45)C(=O)N[C@@H](CCC(N)=O)C(N)=O)(C3)NC(=O)[C@H](CC(N)=O)NC(=O)[C@H](Cc3ccccc3)NC(=O)[C@H](C)NC(=O)[C@H](C)NC(=O)[C@H](CN(CC(=O)O)CC(F)(F)F)NC(=O)[C@H](CC(=O)O)NC1=O)NC(=O)[C@H](CC(C)(C)C)NC(=O)[C@H](CC(=O)O)N(C)C2=O (stereo partly drawn) [I-1162, Ac-PL3-NMeD-Npg-B5-Asp-TfeGA-Ala-Ala-Phe-Asn-PyrS2-3Thi-BztA-Gln-NH2]",1530 nM
2,"C[C@@H]1NC(=O)[C@H](C)NC(=O)[C@H](CC(=O)O)NC(=O)[C@H](CC(=O)O)NC(=O)C2(CCCC=CCCCOC(=O)N3CC[C@@](C(=O)N[C@@H](Cc4ccsc4)C(=O)N[C@@H](Cc4csc5ccccc45)C(=O)N[C@@H](CCC(N)=O)C(N)=O)(C3)NC(=O)[C@H](CC(N)=O)NC(=O)[C@H](Cc3ccccc3)NC1=O)CCCC=CCS(=O)(=O)N1CCCC1C(=O)N[C@@H](CC(=O)O)C(=O)N[C@@H](CC(C)(C)C)C(=O)N2 (single isomer, unassigned) [I-1577, ProSAm3-Asp-Npg-B5-Asp-Asp-Ala-Ala-Phe-Asn-PyrS2-3Thi-BztA-Gln-NH2]",45 nM
3,"CC(=O)N1CCC[C@]12CC=CCCCC1(CCCC=CCCCOC(=O)N3CC[C@@](C(=O)N[C@@H](Cc4ccsc4)C(=O)N[C@@H](Cc4cccc5ccccc45)C(=O)N[C@@H](CCC(N)=O)C(N)=O)(C3)NC(=O)[C@H](CC(N)=O)NC(=O)[C@H](Cc3ccccc3)NC(=O)[C@H](C)NC(=O)[C@H](C)NC(=O)[C@H]([C@@H](C)O)NC(=O)[C@H](CC(N)=O)NC1=O)NC(=O)[C@H](CC(C)(C)C)NC(=O)[C@H](CC(=O)O)NC2=O (stereo partly drawn) [I-1871, Ac-PL3-Asp-Npg-B5-Asn-Thr-Ala-Ala-Phe-Asn-PyrS2-3Thi-1NapA-Gln-NH2]",1770 nM
4,"CCSSCCOC(=O)C[C@@H]1NC(=O)C2(CCCC=CCCCOC(=O)N3CC[C@@](C(=O)N[C@@H](Cc4ccsc4)C(=O)N[C@@H](Cc4csc5ccccc45)C(=O)N[C@@H](CCC(N)=O)C(N)=O)(C3)NC(=O)[C@H](CC(C)C)NC(=O)[C@H](Cc3ccccc3)NC(=O)[C@H](C)NC(=O)[C@H](C)NC(=O)[C@H](CC(=O)O)NC1=O)CCCC=CC[C@]1(CCCN1C(C)=O)C(=O)N[C@@H](CC(=O)O)C(=O)N[C@@H](CC(C)(C)C)C(=O)N2 (stereo partly drawn) [I-1964, Ac-PL3-Asp-Npg-B5-[EtSSEt]AspE-Asp-Ala-Ala-Phe-Leu-PyrS2-3Thi-BztA-Gln-NH2]",738 nM
5,"CC(=O)N1CCC[C@]12CC=CCCCC1(CCCC=CCCCOC(=O)N3CC[C@@](C(=O)N[C@@H](Cc4ccsc4)C(=O)N[C@@H](Cc4csc5ccccc45)C(=O)N[C@@H](CC(C)C)C(N)=O)(C3)NC(=O)[C@H](CC(N)=O)NC(=O)[C@H](Cc3ccccc3)NC(=O)[C@H](C)NC(=O)[C@H](C)NC(=O)[C@H]([C@@H](C)O)NC(=O)[C@H](CC(N)=O)NC1=O)NC(=O)[C@H](CC(C)(C)C)NC(=O)[C@H](CC(=O)O)NC2=O (stereo partly drawn) [I-1881, Ac-PL3-Asp-Npg-B5-Asn-Thr-Ala-Ala-Phe-Asn-PyrS2-3Thi-BztA-Leu-NH2]",743 nM
6,"CC(=O)N1CCC[C@]12CC=CCCCCC1(CCCCC=CCOC(=O)N3CC[C@@](C(=O)N[C@@H](Cc4ccccc4C(F)(F)F)C(=O)N[C@@H](Cc4csc5ccccc45)C(=O)N[C@@H](CCC(N)=O)C(N)=O)(C3)NC(=O)[C@H](CC(C)C)NC(=O)[C@H](Cc3ccccc3)NC(=O)[C@H](C)NC(=O)[C@H](C)NC(=O)[C@H](Cc3cccc(C(=O)O)c3)NC(=O)[C@H](CC(=O)O)NC1=O)NC(=O)[C@H](CC(C)(C)C)NC(=O)[C@H](CC(=O)O)NC2=O (stereo partly drawn) [I-2505, Ac-PL3-Asp-Npg-B6-Asp-3COOHF-Ala-Ala-Phe-Leu-PyrS-2F3MeF-BztA-Gln-NH2]",687 nM
7,"CC(=O)N1CCC[C@]12CC=CCCCC1(CCCC=CCCCOC(=O)N3CC[C@@](C(=O)N[C@@H](Cc4ccsc4)C(=O)N[C@@H](Cc4csc5ccccc45)C(=O)N[C@@H](Cc4c[nH]cn4)C(N)=O)(C3)NC(=O)[C@H](CC(N)=O)NC(=O)[C@H](Cc3ccccc3)NC(=O)[C@H](C)NC(=O)[C@H](C)NC(=O)[C@H]([C@@H](C)O)NC(=O)[C@H](CC(N)=O)NC1=O)NC(=O)[C@H](CC(C)(C)C)NC(=O)[C@H](CC(=O)O)NC2=O (stereo partly drawn) [I-2140, Ac-PL3-Asp-Npg-B5-Asn-Thr-Ala-Ala-Phe-Asn-PyrS2-3Thi-BztA-His-NH2]",233 nM
8,"CCCC[C@@H]1NC(=O)[C@H](Cc2ccccc2)NC(=O)[C@H](C)NC(=O)[C@H](C)NC(=O)[C@H]([C@@H](C)O)NC(=O)[C@H](CC(N)=O)NC(=O)C2(CCCC=CCCCOC(=O)N3CC[C@@](C(=O)N[C@@H](Cc4ccsc4)C(=O)N[C@@H](Cc4csc5ccccc45)C(=O)N[C@@H](CCC(N)=O)C(N)=O)(C3)NC1=O)CCCC=CC[C@]1(CCCN1C(C)=O)C(=O)N[C@@H](CC(=O)O)C(=O)N[C@@H](CC(C)(C)C)C(=O)N2 (stereo partly drawn) [I-1619, Ac-PL3-Asp-Npg-B5-Asn-Thr-Ala-Ala-Phe-nLeu-PyrS2-3Thi-BztA-Gln-NH2]",1290 nM
9,"CC(=O)N1CCC[C@]12CC=CCCCC1(CCCC=CCCCCCC[C@@](C)(C(=O)N[C@@H](Cc3ccccc3C(F)(F)F)C(=O)N[C@@H](Cc3csc4ccccc34)C(=O)N[C@H](CO)[C@@H](C)O)NC(=O)[C@H](CCO)NC(=O)[C@H](Cc3ccccc3)NC(=O)[C@H](C)NC(=O)[C@H](C)NC(=O)[C@H](CC(=O)O)NC(=O)[C@H](CC(=O)O)NC1=O)NC(=O)[C@H](CC(C)(C)C)NC(=O)[C@H](CC(=O)O)NC2=O (stereo partly drawn) [I-1398, Ac-PL3-Asp-Npg-B5-Asp-Asp-Ala-Ala-Phe-Hse-S8-2F3MeF-BztA-Thro1]",73 nM
10,"CC(=O)N1CCC[C@]12CC=CCCCC1(CCCC=CCCCOC(=O)N3CC[C@@](C(=O)N[C@@H](Cc4ccccc4)C(=O)N[C@@H](Cc4csc5ccccc45)C(=O)N[C@@H](CCC(N)=O)C(N)=O)(C3)NC(=O)[C@H]([C@@H](C)O)NC(=O)[C@H](Cc3ccccc3)NC(=O)[C@H](C)NC(=O)[C@H](C)NC(=O)[C@H](Cc3c[nH]cn3)NC(=O)[C@H](CC(=O)O)NC1=O)NC(=O)[C@H](CC(C)(C)C)NC(=O)[C@H](CCO)NC2=O (stereo partly drawn) [I-2438, Ac-PL3-Hse-Npg-B5-Asp-His-Ala-Ala-Phe-Thr-PyrS2-Phe-BztA-Gln-NH2]",1760 nM
11,"COC(=O)N1CCC[C@]12CC=CCCCC1(CCCC=CCCCOC(=O)N3CC[C@@](C(=O)N[C@@H](Cc4ccccc4Cl)C(=O)N[C@@H](Cc4csc5ccccc45)C(=O)N[C@@H](C)C(N)=O)(C3)NC(=O)[C@H](CC(C)C)NC(=O)[C@H](Cc3ccccc3)NC(=O)[C@H](C)NC(=O)[C@H](C)NC(=O)[C@H](Cc3cccc(C(=O)O)c3)NC(=O)[C@H](CC(=O)O)NC1=O)NC(=O)[C@H](CC(C)(C)C)NC(=O)[C@H](CC(=O)O)NC2=O (stereo partly drawn) [I-2324, CO2Me-PL3-Asp-Npg-B5-Asp-3COOHF-Ala-Ala-Phe-Leu-PyrS2-2C1F-BztA-Ala-NH2]",83 nM
12,"CC(=O)N1CCC[C@]12CC=CCCCC1(CCCC=CCCCOC(=O)N3CC[C@@](C(=O)N[C@@H](Cc4ccsc4)C(=O)N[C@@H](Cc4csc5ccccc45)C(=O)N[C@@H](CCC(N)=O)C(N)=O)(C3)NC(=O)[C@H](CC(C)C)NC(=O)[C@H](Cn3cc(CN4CCNCC4)nn3)NC(=O)[C@H](C)NC(=O)[C@H](C)NC(=O)[C@H](CN(CC(=O)O)CC(F)(F)F)NC(=O)[C@H](CC(=O)O)NC1=O)NC(=O)[C@H](CC(C)(C)C)NC(=O)[C@H](CC(=O)O)NC2=O (stereo partly drawn) [I-1857, Ac-PL3-Asp-Npg-B5-Asp-TfeGA-Ala-Ala-[CH2Ppz]TriAzDap-Leu-PyrS2-3Thi-BztA-Gln-NH2]",4030 nM
13,"CC(=O)N1CCC[C@]12CC=CCCCC1(CCCC=CCCCOC(=O)N3CC[C@@](C(=O)N[C@@H](Cc4ccccc4)C(=O)N[C@@H](Cc4csc5ccccc45)C(=O)N[C@@H](CCC(N)=O)C(N)=O)(C3)NC(=O)[C@H](CC(C)C)NC(=O)[C@H](Cc3ccccc3)NC(=O)[C@H](C)NC(=O)[C@H](CCCCNC(C)C)NC(=O)[C@H](CCCCN)NC(=O)[C@H](CC(=O)O)NC1=O)NC(=O)[C@H](CC1CCCCC1)NC(=O)[C@H](CC(N)=O)NC2=O (stereo partly drawn) [I-2346, Ac-PL3-Asn-Cha-B5-Asp-Lys-iPrLys-Ala-Phe-Leu-PyrS2-Phe-BztA-Gln-NH2]",422 nM
14,"CC(=O)N1CCC[C@]12CC=CCCCC1(CCCC=CCCCOC(=O)N3CC[C@@](C(=O)N[C@@H](Cc4ccccc4)C(=O)N[C@@H](Cc4csc5ccccc45)C(=O)N[C@@H](CCO)C(N)=O)(C3)NC(=O)[C@H](CC(N)=O)NC(=O)[C@H](Cc3cscn3)NC(=O)[C@H](C)NC(=O)[C@H](CCCCNC(C)C)NC(=O)[C@H](CCC(N)=O)NC(=O)[C@H](CC(=O)O)NC1=O)NC(=O)[C@H](CC1CCCCC1)NC(=O)[C@H](CC(N)=O)NC2=O (stereo partly drawn) [I-2072, Ac-PL3-Asn-Cha-B5-Asp-Gln-iPrLys-Ala-4Thz-Asn-PyrS2-Phe-BztA-Hse-NH2]",8260 nM
